We go through three molecules from patent US8609391B2, “Mannose-6-phosphate isomerase, mutant thereof, and use thereof” (Konkuk University Industrial Cooperation Corp., priority 2009, dated 2013).

Series [1] addresses T1, Thermus thermophilus mannose-6-phosphate isomerase (Sequence No. 1) variant R142Y (Thermus thermophilus, UniProt Q5SIM4, R142Y).
T1 construct: site-directed mutant
Description: Kinetic parameters to L-ribulose, R142Y mutant. The series is classed as biochemical. The note with it: 75° C., pH 7.0, 0.5 mM Cu^2+. The procedure:
(§1) The experiment for measuring and comparing specific activities of the mannose-6-isomerase and mutant enzyme to L-ribulose was performed.
(§2) The enzyme reaction was performed at 75° C. for 5 minutes using 50 mM PIPES buffer solution (pH 7.0) including 10 mM ribulose and the metal ion of 0.5 mM Cu^2+ and then again stopped by adding a final concentration of 200 mM hydrogen chloride. In the present invention, the enzyme activity was measured by using […] as a substrate, and one unit of the enzyme activity was defined as the amount of enzyme required to produce 1 nmole of L-Ribose per 1 minute at 75° C. and pH 7.0 for a smooth comparative analysis. In addition, when measuring the enzyme activity, the analysis of the concentrations of ribose and ribulose, and other sugars was performed by using Bio liquid chromatography (Bio-LC) system (DIONEX ICS-3000, Sunnylvale, Calif., USA) installed with CarboPacPA and an electrochemical detector. At this point, 200 mM sodium hydroxide (NaOH) was passed through the CarboPacPA column at the rate of 1 ml/min at 30° C.

The target of series [2] is T2, Thermus thermophilus mannose-6-phosphate isomerase, wild type, Sequence No. 1 (gene SEQ ID NO: 3) (Thermus thermophilus, UniProt Q5SIM4).
T2 sequence (Q5SIM4 1-254): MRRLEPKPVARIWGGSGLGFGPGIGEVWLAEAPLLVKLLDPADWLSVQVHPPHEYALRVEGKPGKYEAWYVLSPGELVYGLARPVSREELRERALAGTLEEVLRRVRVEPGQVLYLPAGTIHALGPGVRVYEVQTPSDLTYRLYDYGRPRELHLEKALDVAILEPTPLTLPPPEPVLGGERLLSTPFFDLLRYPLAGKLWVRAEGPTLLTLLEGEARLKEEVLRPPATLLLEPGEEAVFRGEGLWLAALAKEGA
As to the kind of experiment: Kinetic parameters to L-ribulose, wild enzyme. The series is classed as biochemical. The following applies: 75° C., pH 7.0, 0.5 mM Cu^2+. The procedure:
as §1, §2

In series [3] the target is T3, Thermus thermophilus mannose-6-phosphate isomerase (Sequence No. 1) variant R142K (Thermus thermophilus, UniProt Q5SIM4, R142K).
T3 construct: site-directed mutant
As to the kind of experiment: Kinetic parameters to L-ribulose, R142K mutant. The series is classed as biochemical. The following applies: 75° C., pH 7.0, 0.5 mM Cu^2+. As to the method: as §1, §2

The target in series [4] is T4, Thermus thermophilus mannose-6-phosphate isomerase (Sequence No. 1) variant R142E (Thermus thermophilus, UniProt Q5SIM4, R142E).
T4 construct: site-directed mutant
As to the kind of experiment: Kinetic parameters to L-ribulose, R142E mutant. The series is classed as biochemical. The following applies: 75° C., pH 7.0, 0.5 mM Cu^2+. The procedure:
as §1, §2

Series [5] addresses T5, Thermus thermophilus mannose-6-phosphate isomerase (Sequence No. 1) variant R142A (Thermus thermophilus, UniProt Q5SIM4, R142A).
T5 construct: site-directed mutant
As to the kind of experiment: Kinetic parameters to L-ribulose, R142A mutant. The note with it: 75° C., pH 7.0, 0.5 mM Cu^2+. The series is classed as biochemical. As to the method: as §1, §2

Series [6] has as its target T6, Thermus thermophilus mannose-6-phosphate isomerase (Sequence No. 1) variant R142N (gene SEQ ID NO: 5) (Thermus thermophilus, UniProt Q5SIM4, R142N).
T6 construct: site-directed mutant
T6 sequence (Q5SIM4 1-254 R142N): T2 sequence (Q5SIM4 1-254) with R142N
Description: Kinetic parameters to L-ribulose, R142N mutant. The series is classed as biochemical. The note with it: 75° C., pH 7.0, 0.5 mM Cu^2+. As to the method:
as §1, §2

Substrate in series [7]: O=C(CO)[C@@H](O)[C@@H](O)CO
As to the kind of experiment: Kinetic parameters to L-ribulose, R142N mutant. The series is classed as biochemical, Thermus thermophilus. The following applies: other: 75° C., pH 7.0, 0.5 mM Cu^2+. As to the method: as §1, §2

Substrate in series [8]: O=C(CO)[C@@H](O)[C@@H](O)CO
As to the kind of experiment: Kinetic parameters to L-ribulose, wild enzyme. The format is biochemical, Thermus thermophilus. The note with it: other: 75° C., pH 7.0, 0.5 mM Cu^2+. As to the method:
as §1, §2

Where a chain is given by its changes, count along the chain named. Names and notes keep the numbering of the source.

T5 sequence (Q5SIM4 entry or part of it R142A): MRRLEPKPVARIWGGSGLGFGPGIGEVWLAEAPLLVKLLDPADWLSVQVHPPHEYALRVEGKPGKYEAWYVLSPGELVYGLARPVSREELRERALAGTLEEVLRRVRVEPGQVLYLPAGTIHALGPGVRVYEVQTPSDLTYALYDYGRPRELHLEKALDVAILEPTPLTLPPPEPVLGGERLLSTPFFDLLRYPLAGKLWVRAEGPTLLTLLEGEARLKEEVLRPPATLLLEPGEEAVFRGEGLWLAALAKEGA
T3 sequence (Q5SIM4 entry or part of it R142K): as the sequence (Q5SIM4 entry or part of it R142A) above, with A142K counted along it
T4 sequence (Q5SIM4 entry or part of it R142E): as the sequence (Q5SIM4 entry or part of it R142A) above, with A142E counted along it
T1 sequence (Q5SIM4 entry or part of it R142Y): as the sequence (Q5SIM4 entry or part of it R142A) above, with A142Y counted along it

For the molecule `O=C(CO)[C@@H](O)[C@@H](O)CO` [L-ribulose], the kcat in series [1] was 56178 ± 865 s⁻¹; in series [2], 50644 ± 709 s⁻¹; in series [3], 68877 ± 964 s⁻¹; in series [4] it was 32666 ± 536 s⁻¹; in series [5], 64873 ± 908 s⁻¹; in series [6] it was 81063 ± 1329 s⁻¹. The kcat/Km was determined as 182000 ± 5000 M⁻¹ s⁻¹ in series [1]; 374000 ± 11000 M⁻¹ s⁻¹ in series [2]; 302000 ± 9000 M⁻¹ s⁻¹ in series [3]; 216000 ± 8000 M⁻¹ s⁻¹ in series [4]; 353000 ± 11000 M⁻¹ s⁻¹ in series [5]; 579000 ± 20000 M⁻¹ s⁻¹ in series [6]. Besides, the “increase of catalytic efficiency as compared to the wild enzyme” value in series [6] (ratio R142N / wild) came out at 1.5 fold.

B1: Thermus thermophilus mannose-6-phosphate isomerase (Sequence No. 1) variant R142N (gene SEQ ID NO: 5) (Thermus thermophilus HB8; R142N) (protein)
chain: T2 sequence (Q5SIM4 1-254) with R142N
notes: site-directed mutant
Take B1: in series [7], the catalytic efficiency (kcat/Km) is 579000 M⁻¹ s⁻¹.

B2: Thermus thermophilus mannose-6-phosphate isomerase, wild type, Sequence No. 1 (gene SEQ ID NO: 3) (Thermus thermophilus HB8) (protein)
chain: T2 sequence (Q5SIM4 1-254)
On to B2, for which the kcat/Km in series [8] was found to be 374000 M⁻¹ s⁻¹.

For orientation: kcat means the maximal rate divided by the concentration of active sites. As a reminder, the kcat/Km is the turnover number divided by the Michaelis constant.
